Measured values: ChEMBL document CHEMBL1144406 (J Med Chem, 2005)

What was measured:
[1] = target: T1, Prostaglandin D2 receptor (Homo sapiens, UniProt Q13258); assay: Inhibition of [3H]-PGD-2 binding to human Prostaglandin D2 receptor
T1 sequence (Q13258 whole entry): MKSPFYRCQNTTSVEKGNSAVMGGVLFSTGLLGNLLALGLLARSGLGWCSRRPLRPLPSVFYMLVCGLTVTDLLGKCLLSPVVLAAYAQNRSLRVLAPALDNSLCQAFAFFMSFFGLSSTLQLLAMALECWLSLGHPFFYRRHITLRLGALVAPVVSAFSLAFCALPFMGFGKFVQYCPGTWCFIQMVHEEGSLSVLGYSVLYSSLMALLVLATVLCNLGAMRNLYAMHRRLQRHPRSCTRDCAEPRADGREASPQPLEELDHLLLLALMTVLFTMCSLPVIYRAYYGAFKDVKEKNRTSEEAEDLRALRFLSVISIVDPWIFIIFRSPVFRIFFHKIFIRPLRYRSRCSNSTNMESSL

[2] = target: T2, Thromboxane A2 receptor (Homo sapiens, UniProt P21731); assay: Inhibition of [3H]SQ-29,548 binding to human Thromboxane A2 receptor
T2 sequence (P21731 whole entry): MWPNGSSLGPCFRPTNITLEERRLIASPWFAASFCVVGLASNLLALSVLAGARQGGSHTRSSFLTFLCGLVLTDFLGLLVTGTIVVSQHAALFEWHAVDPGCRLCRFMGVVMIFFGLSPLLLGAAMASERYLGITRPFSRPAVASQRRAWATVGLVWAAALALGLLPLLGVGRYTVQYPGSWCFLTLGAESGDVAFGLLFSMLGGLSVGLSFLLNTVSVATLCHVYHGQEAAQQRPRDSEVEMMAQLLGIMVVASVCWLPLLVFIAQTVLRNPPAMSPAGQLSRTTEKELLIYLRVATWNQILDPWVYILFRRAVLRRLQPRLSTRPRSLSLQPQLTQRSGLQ

[3] = target: T3, Prostaglandin D2 receptor 2 (Homo sapiens, UniProt Q9Y5Y4); assay: Inhibition of [3H]PGD-2 binding to human chemoattractant receptor-homologous molecule expressed on Th2 cells (CRTH2); format: cell-based
T3 sequence (Q9Y5Y4 whole entry): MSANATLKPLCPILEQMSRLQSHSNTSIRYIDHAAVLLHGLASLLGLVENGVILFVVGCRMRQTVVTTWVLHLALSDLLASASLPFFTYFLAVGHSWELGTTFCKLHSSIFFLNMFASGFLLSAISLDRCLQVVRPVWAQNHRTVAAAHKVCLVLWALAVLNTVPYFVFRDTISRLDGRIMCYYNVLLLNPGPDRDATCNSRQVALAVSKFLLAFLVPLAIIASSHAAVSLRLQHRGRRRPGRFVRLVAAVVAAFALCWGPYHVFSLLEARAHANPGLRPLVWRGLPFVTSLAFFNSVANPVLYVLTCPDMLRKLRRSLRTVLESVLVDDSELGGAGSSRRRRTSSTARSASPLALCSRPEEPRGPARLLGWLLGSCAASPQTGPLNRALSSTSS

[4] = target: T1, Prostaglandin D2 receptor; assay: Inhibition of PGD2-induced inositol phosphate formation at human Prostaglandin D2 receptor; format: functional
[5] = target: T3, Prostaglandin D2 receptor 2; assay: Inhibition of beta-arrestin translocation at human chemoattractant receptor-homologous molecule expressed on TH2 cells in BRET assay; format: functional, cell-based
[6] = target: T3, Prostaglandin D2 receptor 2; assay: Inhibition of PGD2-induced inositol phosphate formation at human chemoattractant receptor-homologous molecule expressed on TH2 cells; format: functional, cell-based
[7] = target: T2, Thromboxane A2 receptor; assay: Inhibition of U-46,619-induced inositol phosphate accumulation at human Thromboxane A2 receptor; format: functional
[8] = target: T2, Thromboxane A2 receptor; assay: Inhibition of beta-arrestin translocation at human Thromboxane A2 receptor in BRET assay; format: functional

Q: With `CN([C@@H]1CCc2c(c3ccccc3n2CCC(=O)O)C1)S(=O)(=O)c1ccc(F)cc1` as the molecule, how does the Ki [1] read?
A: 6.1 µM

Q: What about the Ki [2] of the same molecule?
A: 3000 nM

Q: What about the Ki [3] of the same molecule?
A: 1.9 nM

Q: And the IC50 [4]?
A: > 10 µM

Q: What about the IC50 [5] of the same molecule?
A: 15 nM

Q: And the IC50 [6]?
A: 26 nM

Q: What about the IC50 [7] of the same molecule?
A: 4600 nM

Q: `O=C(O)Cn1c2c(c3ccccc31)C[C@H](NS(=O)(=O)c1ccc(F)cc1)CC2` was tested. Which Ki [1] did it give?
A: 5.3 µM

Q: What about the Ki [2] of the same molecule?
A: 540 nM

Q: And the Ki [3]?
A: 0.51 nM

Q: What about the IC50 [4] of the same molecule?
A: > 10 µM

Q: What about the IC50 [5] of the same molecule?
A: 3.8 nM

Q: What about the IC50 [6] of the same molecule?
A: 3.8 nM

Q: And the IC50 [7]?
A: 1700 nM

Q: Which Ki [1] does the source give for `O=C(O)CCn1c2c(c3ccccc31)C[C@H](NS(=O)(=O)c1ccc(F)cc1)CC2` [RAMATROBAN] here?
A: > 10 µM

Q: What about the Ki [2] of the same molecule?
A: 4.5 nM

Q: And the Ki [3]?
A: 4.3 nM

Q: And the IC50 [4]?
A: > 10 µM

Q: What about the IC50 [8] of the same molecule?
A: 8.4 nM

Q: What about the IC50 [5] of the same molecule?
A: 28 nM

Q: And the IC50 [6]?
A: 29 nM

Q: And the IC50 [7]?
A: 9.6 nM
